Assay results from US9365830B2, “Agents and methods for inhibiting human pluripotent stem cell growth” (VIACYTE, INC., priority 2010, dated 2016).
Read-outs that look alike come from different tables or passages of the source.

Tests used:
Type in all cases: cell-based, human
NPCs = assay: Secondary screen, lowest effective dose on NPCs; details: lowest concentration that elicited cytotoxicity, range 0.1 to 50 μM, read-out: ED NPC (lowest effective dose)
Method: In addition, the complete LOPAC1280™ collection was also screened for effects on neural progenitor cells (NPCs) that were derived from the hESCs. Neural progenitors were plated in serum-free MedII conditioned medium at 6×10^4 cells/well and fed daily. Two days after plating, 10 μM of each compound was added and the cells were cultured for an additional 2 days. […] Reduced crystal violet staining was indicative of lower proportions of NPCs. See circled wells in FIG. 7B. The left and right columns of the LOPAC1280™ plates from which the compounds were dispensed were empty and served as untreated controls. […] See Table 6 below listing the name and class of activity of each candidate compound identified in this screen (except chelerythrine chloride, which is listed in Table 5). ChCl was not included in the subsequent round of screening. Therefore only 40 compounds were tested further.
(§1) Using a range of different concentrations from 0.1 to 50 μM, the forty compounds in Table 6 were re-screened (secondary screen) using hESCS and NPCs. The effective dose (ED) was defined as the lowest concentration of a compound that elicited cytotoxicity during the secondary screen. […] The darker wells were indicative of the increased numbers or percentages of proliferating or growing pluripotent stem cells in the wells. In addition, these 40 compounds were screened on differentiating definitive endoderm (DE) cell cultures in 96-well plate impedance assays (described above) to determine which of these compounds were not cytotoxic to definitive endoderm cells at the lowest effective dose on either hESC or NPC. […] See “ACEA DE” column in Table 6.

[1] = system: differentiating definitive endoderm (DE) cell cultures; assay: 96-well plate impedance assay (ACEA) on differentiating definitive endoderm at lowest effective dose; set-up: key: Viable: Compounds that did not appear to be cytotoxic toward differentiating DE cultures were marked as “viable”, meaning that the compound did not affect the survival, growth, proliferation or differentiation of the differentiated cells; details: at the lowest effective dose on either hESC or NPC
Description: The impedance assay on the hESCs using the compounds in Table 4 above gave greater than twenty (20) hits. However, the ideal candidate compound of the present invention should not only be inhibitory or cytotoxic to human pluripotent stem cells, such as hESCs or hIPSCs, but should at the same time have no effect on cell viability of differentiated or differentiating cell populations including Stage 1, 2, 3, 4 and 5 type cells cultures (definitive endoderm, foregut endoderm, posterior foregut, pancreatic endoderm and endocrine cells, respectively). […] Approximately 3×10^4 hES cells were plated per well and grown for 24 hrs in DC-HAIF defined medium (i.e. StemPro® hESC SFM medium (Life Technologies, Carlsbad, Calif.). Stage 1 or definitive endoderm differentiation was then induced by changing the medium and culturing in RPMI, 100 ng/mL Activin A, and 10 ng/mL of FGF2. […] of GSK-3 beta Inhibitor 15 (Calbiochem #361558) as added to the culture for the first 24 hours of differentiation only. 10 μM of each of the candidate compounds were added about 48 hours or 2 days after differentiation was induced (see FIGS. 3 C & D, large arrowhead), and the cells were cultured for an additional 2 days.
as §1

[2] = system: hESC suspension aggregate cultures, Stages 1-4 (pancreatic endoderm); assay: Q-PCR marker gene expression, suspension aggregate cultures differentiated through Stages 1-4; details: for PDX1 and NKX6.1 gene expression: Stages 2, 3 and 4, compared to the Controls
Description: FIGS. 5A-5M. are bar graphs showing the relative gene expression levels of markers expressed in pluripotent cells or in cells of pancreatic lineage: OCT4 (FIG. 5A), MIXL (FIG. 5B), EOMES (FIG. 5C), CXCR4 (FIG. 5D), SOX17 (FIG. 5E), HNF1B (FIG. 5F), HNF4A (FIG. 5G), PDX1 (FIG. 5H), PTF1A (FIG. 5I), NKX2.2. (FIG. 5J), NGN3 (FIG. 5K), NKX6.1 (FIG. 5L) and PAX4 (FIG. 5M) with treatment of candidate selective cytotoxic agents from the LOPAC1280™ sublibrary (Table 4) to suspension aggregate cell cultures at Stages 1-4. Expression levels are normalized to the average expression levels of housekeeping genes. The graphs depict fold regulation compared to hESC sample. Ch.Cl=chelerythrine chloride; Deph.=dephostatin; AG=AG 490; SU=SU6656.
FIGS. 6A-6F are bar graphs showing the relative gene expression levels of markers of non-pancreatic lineage cells: SOX1 (FIG. 6A; e.g., at least observed in extraembryonic and neural cellss), ZIC1 (FIG. 6B; e.g., at least observed in early neural cells), PAX6 (FIG. 6C; e.g., at least observed in neural ectoderm cells), SOX7 (FIG. 6D; e.g., at least observed in extraembryonic cells), AFP (FIG. 6E; e.g., at least observed in liver cell and extraembryonic cells) and CDX2 (FIG. 6F; e.g., at least observed in extraembryonic cells) in compound-treated differentiations.
Effects of Candidate Inhibitor/Cytotoxic Agents in Suspension Aggregate Culture. The ideal inhibitor candidate for cell therapy would be compatible with pancreatic cell lineage viability in a manufacturing scale-up process (e.g. a suspension aggregate culture that could be propagated in a large bioreactor), as well as in small-scale cell culture, such as in 96-well plates or 6-well trays. Thus, an additional screen included conditions similar to those in a commercial-scale process. […] The remaining 4 compounds, chelerythrine chloride (Ch.Cl; Cmpd. No. 25), tyrphostin AG 490 (AG; Cmpd. No. 152), dephostatin (Deph; Cmpd. No. 48), and SU 6656 (SU; Cmpd. No. 126) were screened for selective inhibition of pluripotent stem cell growth in a suspension aggregate type culture, which is amenable to manufacturing scale-up process. Briefly, Human ESCs were aggregated in rotational culture and differentiated through Stages 1-4 to make pancreatic endoderm substantially as described in U.S. patent application Ser. No. 11/838,054, entitled COMPOSITIONS AND METHODS USEFUL FOR CULTURING DIFFERENTIABLE CELLS, filed Aug. 13, 2007; and U.S. patent application Ser. No. 12/264,760, entitled STEM CELL AGGREGATE SUSPENSION COMPOSITIONS AND METHODS OF DIFFERENTIATION THEREOF, filed Nov. 4, 2008, which are herein incorporated by reference in their entirety. RNA samples were collected from control and compound-treated cell cultures at various time points during the differentiation as above, for analysis by Q-PCR. FIGS. 5A-5M show the expression of markers characteristic of pluripotent stem cells or at least one of Stages 1-5. FIGS. 6A-6F show the expression of markers not normally expressed in pluripotent stem cells or Stages 1-5. Each graph includes 5 sections: QPCR samples were normalized to day 0 (hESC), which is the “Control” section farthest left on each graph of FIGS. 5A-5M; the other four sections to the right of the Control section correspond to the four compounds used to treat the cells (chelerythrine chloride (Ch.Cl; Cmpd. No. 25); tyrphostin AG 490 (AG490; Cmpd. No. 152), dephostatin (Deph; Cmpd. No. 48), and SU 6656 (SU6656; Cmpd. No. 126) left to right, respectively).

22, 23-dihydroavermectin B1a+22,23-dihydroavermectin B1b [Ivermectin]
minimal effective concentration (NPCs): >50 µM
ACEA DE [1]: Viable

CN(N=O)c1cc(O)ccc1O [Dephostatin]
differentiation of non-pancreatic lineage cells, or “off-target” cells ([2]; FIGS. 6A-6F): do not promote
PDX1 and NKX6.1 gene expression [2]: increased

CN(C)S(=O)(=O)c1ccc2c(c1)/C(=C/c1cc3c([nH]1)CCCC3)C(=O)N2 [SU 6656]
CDX2 gene expression (non-pancreatic marker) ([2]; FIG. 6F): elevated
PDX1 and NKX6.1 gene expression [2]: increased
minimal effective concentration (NPCs; Homo sapiens, 48 h): > 50 µM
ACEA DE [1]: Viable

N#C/C(=C\c1ccc(O)c(O)c1)C(=O)NCc1ccccc1 [Tyrphostin AG 490]
AFP gene expression (non-pancreatic marker) ([2]; FIG. 6E): elevated
PDX1 and NKX6.1 gene expression [2]: reduced
minimal effective concentration (NPCs): 10 µM
ACEA DE [1]: Viable
